For this assay, the system named is NLRP3. Kind of assay: IL-1β secretion assay in PMA-differentiated, LPS/nigericin-stimulated THP-1 cells (384-well, ELISA read-out). In kind it is cell-based, human. The settings on record: Homo sapiens. A digest of the protocol:
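THP-1 cells differentiated with PMA (5 ng/mL, 40 h), primed in serum-free medium with 25 ng/mL LPS for 2 h, treated with compounds 1 h (0.5% DMSO), then stimulated with nigericin for 2 h at 37 °C. Supernatant IL-1β measured by ELISA; responses normalized to LPS+5 μM nigericin and LPS-only controls.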
Background: In an ELISA, binding on a coated surface is turned into a signal by an enzyme label.

Setting [1] is: THP-1, IL-1β secretion, PMA-differentiated THP-1 cells, LPS then nigericin stimulation, ELISA read at 450 nm, read-out: Activity.
[2] abbreviates: THP-1, Table 4, IL-1β secretion, LPS/nigericin-stimulated THP-1 cells, read-out: IC50.

Molecules are shown by their SMILES. Like-named read-outs stand apart in the source and are kept apart here. Some results are limits rather than exact numbers.

As for `O=C(CN1CC2(CC2)c2cc(Br)ccc2C1=O)NC1CCC(F)(F)CC1` [Example 15, 2-(6-bromo-1-oxospiro[3H-isoquinoline-4,1′-cyclopropane]-2-yl)-N-(4,4-difluorocyclohexyl)acetamide], the IC50 under setting [1] is less than 10 µM and the IC50 under setting [2] amounted to 3.19 µM.
On the same counts, the results for `O=C(CN1CC2(CC2)c2cc(Br)ccc2C1=O)N[C@@H]1C[C@@H]2CC[C@H]1O2` [Example 16, 2-(6-bromo-1-oxospiro[3H-isoquinoline-4,1′-cyclopropane]-2-yl)-N-[(1R,2R,4S)-7-oxabicyclo[2.2.1]heptan-2-yl]acetamide] are less than 10 µM and 9.83 µM.
On the same counts, the results for `CCN1CCCC(NC(=O)CN2CC3(CC3)c3cc(Br)ccc3C2=O)C1` (centres unmarked) [Example 18, 2-(6-bromo-1-oxospiro[3H-isoquinoline-4,1′-cyclopropane]-2-yl)-N-(1-ethylpiperidin-3-yl)acetamide] are less than 10 µM and 1.45 µM.
Consider `C[C@]1(O)C[C@@H](NC(=O)CN2CC3(CC3)c3cc(Br)ccc3C2=O)C1` [Example 19, 2-(6-bromo-1-oxospiro[3H-isoquinoline-4,1′-cyclopropane]-2-yl)-N-(cis-3-hydroxy-3-methylcyclobutyl)acetamide], for which the IC50 was less than 10 µM under setting [1] and 0.153 µM under setting [2].
On the same counts, the results for `O=C(CN1CC2(CC2)c2cc(Br)ccc2C1=O)NC1CCn2nccc2C1` (centres unmarked) [Example 20] are less than 10 µM and 3.19 µM.
For `CN1CC(NC(=O)CN2CC3(CC3)c3cc(Br)ccc3C2=O)CCC1=O` (centres unmarked) [Example 21, 2-(6-bromo-1-oxo-spiro[3H-isoquinoline-4,1′-cyclopropane]-2-yl)-N-(1-methyl-6-oxo-3-piperidyl)acetamide], the IC50 by setting is: under setting [1], less than 10 µM; under setting [2], 6.1 µM.
On the same counts, the results for `CN1CCC(NC(=O)CN2CC3(CC3)c3cc(Br)ccc3C2=O)CC1=O` (centres unmarked) [Example 22, 2-(6-bromo-1-oxo-spiro[3H-isoquinoline-4,1′-cyclopropane]-2-yl)-N-(1-methyl-2-oxo-4-piperidyl)acetamide] are 10 to 15 µM and 10.9 µM.
Consider `O=C(CN1CC2(CC2)c2cc(Br)ccc2C1=O)NC1CC2(CC2)C1` [Example 23, 2-(6-bromo-1-oxo-spiro[3H-isoquinoline-4,1′-cyclopropane]-2-yl)-N-spiro[2.3]hexan-5-yl-acetamide], for which the IC50 under setting [1] was less than 10 µM and the IC50 under setting [2] was found to be 1.88 µM.
On the same counts, the results for `O=C(CN1CC2(CC2)c2cc(Br)ccc2C1=O)NC1CCOC(C2CC2)C1` (centres unmarked) [Example 24, 2-(6-bromo-1-oxo-spiro[3H-isoquinoline-4,1′-cyclopropane]-2-yl)-N-(2-cyclopropyltetrahydropyran-4-yl)acetamide] are less than 10 µM and 7.17 µM.
On the same counts, the results for `COCCN1CCCC(NC(=O)CN2CC3(CC3)c3cc(Br)ccc3C2=O)C1` (centres unmarked) [Example 25, 2-(6-bromo-1-oxo-spiro[3H-isoquinoline-4,1′-cyclopropane]-2-yl)-N-[1-(2-methoxyethyl)-3-piperidyl]acetamide] are less than 10 µM and 3.57 µM.
In the case of `CC1(C)CN(CC(=O)N[C@@H]2CCCN(C3CCC3)C2)C(=O)c2ccc(Br)cc21` [Example 26, (R)-2-(6-bromo-4,4-dimethyl-1-oxo-3,4-dihydroisoquinolin-2(1H)-yl)-N-(1-cyclobutylpiperidin-3-yl)acetamide], the IC50 was less than 10 µM under setting [1] and 0.445 µM under setting [2].
On the same counts, the results for `O=C(CN1CC2(CC2)c2cc(C(F)(F)F)ccc2C1=O)Nc1ncccn1` [Example 27, 2-[1-oxo-6-(trifluoromethyl)spiro[3H-isoquinoline-4,1′-cyclopropane]-2-yl]-N-pyrimidin-2-yl-acetamide] are less than 10 µM and 0.291 µM.
On the same counts, the results for `O=C(CN1CC2(CC2)c2cc(C(F)(F)F)ccc2C1=O)Nc1ncc(F)cn1` [Example 28] are less than 10 µM and 0.373 µM.

The values above are taken from patent US20230416205A1, “COMPOUNDS, COMPOSITIONS, AND METHODS” (Denali Therapeutics Inc, priority 2020, published 2023).
